Laboratory results published in PubChem BioAssay AID1845217 (Molecular Pharmacology Branch, DTP, NCI, 2023).

System: VA-ES-BJ tumor spheroid viability
Experiment: Anticancer human tumor VA-ES-BJ cell line growth inhibition;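 also: spheroids exposed to compounds for seven days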;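 as to viability, T/C: percent of DMSO vehicle control viability so 100% = untreated growth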
Conditions: spheroids with HUVEC and MSC; for IC50: curve of first compound; for viability, T/C: stronger effect = lower value
Method in brief: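 Complex spheroids of malignant cells with endothelial cells and mesenchymal stem cells; agents alone or combined, from near clinical Cmax (or 10 microM if unknown) down in half-log steps, 0.25% DMSO final.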

[1] = second compound 1 µM, first compound 0.0316 µM
[2] = second compound 1 µM, first compound 0.1 µM
[3] = second compound 1 µM, first compound 0.316 µM
[4] = second compound 1 µM, first compound 1 µM
[5] = second compound 1 µM, first compound 3.16 µM
[6] = second compound 1 µM, first compound 10 µM
[7] = second compound 3.16 µM, first compound 0.0316 µM
[8] = second compound 3.16 µM, first compound 0.1 µM
[9] = second compound 3.16 µM, first compound 0.316 µM
[10] = second compound 3.16 µM, first compound 1 µM
[11] = second compound 3.16 µM, first compound 3.16 µM
[12] = second compound 3.16 µM, first compound 10 µM
[13] = second compound 10 µM, first compound 0.0316 µM
[14] = second compound 10 µM, first compound 0.1 µM
[15] = second compound 10 µM, first compound 0.316 µM
[16] = second compound 10 µM, first compound 1 µM
[17] = second compound 10 µM, first compound 3.16 µM
[18] = second compound 10 µM, first compound 10 µM
[19] = second compound 31.6 µM, first compound 0.0316 µM
[20] = second compound 31.6 µM, first compound 0.1 µM
[21] = second compound 31.6 µM, first compound 0.316 µM
[22] = second compound 31.6 µM, first compound 1 µM
[23] = second compound 31.6 µM, first compound 3.16 µM
[24] = second compound 31.6 µM, first compound 10 µM
[25] = second compound 100 µM, first compound 0.0316 µM
[26] = second compound 100 µM, first compound 0.1 µM
[27] = second compound 100 µM, first compound 0.316 µM
[28] = second compound 100 µM, first compound 1 µM
[29] = second compound 100 µM, first compound 3.16 µM
[30] = second compound 100 µM, first compound 10 µM

Row | SMILES | IC50 (second compound 1 µM) | IC50 (second compound 3.16 µM) | IC50 (second compound 10 µM) | IC50 (second compound 31.6 µM) | IC50 (second compound 100 µM) | viability, T/C [1] | viability, T/C [2] | viability, T/C [3] | viability, T/C [4] | viability, T/C [5] | viability, T/C [6] | viability, T/C [7] | viability, T/C [8] | viability, T/C [9] | viability, T/C [10] | viability, T/C [11] | viability, T/C [12] | viability, T/C [13] | viability, T/C [14] | viability, T/C [15] | also measured
1 | CC(C)n1c(=O)n(C)c2cnc3cc(F)c(-c4ccc(OCCCN5CCCCC5)nc4)cc3c21 + Cn1nnc2c(C(N)=O)ncn2c1=O | > 10000 nM | > 10000 nM | > 10000 nM | > 10000 nM | > 10000 nM | 93% | 92.2% | 93% | 105% | 110% | 77.8% | 94% | 86.3% | 93.3% | 110% | 111% | 55.6% | 92.2% | 94.3% | 88% | viability, T/C [16]: 103%; viability, T/C [17]: 111%; viability, T/C [18]: 62.1%; viability, T/C [19]: 80.6%; viability, T/C [20]: 100%; viability, T/C [21]: 103%; viability, T/C [22]: 103%; viability, T/C [23]: 113%; viability, T/C [24]: 53.3%; viability, T/C [25]: 103%; viability, T/C [26]: 102%; viability, T/C [27]: 106%; viability, T/C [28]: 116%; viability, T/C [29]: 109%; viability, T/C [30]: 101%
2 | CC1COCCN1c1cc(-c2ccnn2C)c2ccnc(-c3ccn[nH]3)c2n1 (stereo not given) + Cn1nnc2c(C(N)=O)ncn2c1=O | 118 nM | 127 nM | 111 nM | 84.1 nM | 56.1 nM | 94.7% | 52.9% | 29% | 8.26% | 6.9% | 6.16% | 85.2% | 54.7% | 30.1% | 9.03% | 6.96% | 5.94% | 87.7% | 51.8% | 26.4% | viability, T/C [16]: 8.47%; viability, T/C [17]: 6.49%; viability, T/C [18]: 6.12%; viability, T/C [19]: 81.3%; viability, T/C [20]: 44%; viability, T/C [21]: 23.2%; viability, T/C [22]: 9.91%; viability, T/C [23]: 6.7%; viability, T/C [24]: 5.99%; viability, T/C [25]: 62.7%; viability, T/C [26]: 37.2%; viability, T/C [27]: 18.4%; viability, T/C [28]: 8.87%; viability, T/C [29]: 6.58%; viability, T/C [30]: 5.6%
3 | COc1cc(C)[nH]c(=O)c1CN1CCc2c(Cl)cc(C(OC)C3COC3)c(Cl)c2C1=O (stereo not given) + Cn1nnc2c(C(N)=O)ncn2c1=O | 9570 nM | > 10000 nM | 3260 nM | 3360 nM | 2220 nM | 94% | 88.8% | 72.2% | 61.4% | 54% | 49% | 97.6% | 85.8% | 70.8% | 60.3% | 56.1% | 49.5% | 89% | 87.2% | 71.6% | viability, T/C [16]: 58.4%; viability, T/C [17]: 52.4%; viability, T/C [18]: 45.2%; viability, T/C [19]: 95.5%; viability, T/C [20]: 85.4%; viability, T/C [21]: 68.9%; viability, T/C [22]: 56.8%; viability, T/C [23]: 51.9%; viability, T/C [24]: 46%; viability, T/C [25]: 106%; viability, T/C [26]: 90.2%; viability, T/C [27]: 75.1%; viability, T/C [28]: 53.8%; viability, T/C [29]: 48.7%; viability, T/C [30]: 42.7%
4 | COc1ccc([C@@H](O)c2cc(-c3ncnc4cc(N5CCOCC5)ccc34)c(F)cc2Cl)nn1 + Cn1nnc2c(C(N)=O)ncn2c1=O | 477 nM | 574 nM | 602 nM | 623 nM | 547 nM | 94.9% | 79.5% | 56.8% | 37.9% | 15.8% | 7.65% | 92.4% | 89.6% | 70% | 31% | 13.2% | 7.49% | 92.5% | 84.4% | 63.5% | viability, T/C [16]: 41.5%; viability, T/C [17]: 11.4%; viability, T/C [18]: 7.61%; viability, T/C [19]: 85.6%; viability, T/C [20]: 83%; viability, T/C [21]: 65.8%; viability, T/C [22]: 38.8%; viability, T/C [23]: 16.1%; viability, T/C [24]: 7.46%; viability, T/C [25]: 96.2%; viability, T/C [26]: 98.1%; viability, T/C [27]: 61.5%; viability, T/C [28]: 35%; viability, T/C [29]: 13.9%; viability, T/C [30]: 8.08%
5 | Cc1cc(C)c(CNC(=O)c2cc(-c3ccc(CN4CCOCC4)cc3)cc3c2cnn3C2CCCC2)c(=O)[nH]1 + Cn1nnc2c(C(N)=O)ncn2c1=O | > 10000 nM | > 10000 nM | > 10000 nM | > 10000 nM | > 10000 nM | 114% | 97.9% | 101% | 113% | 117% | 104% | 99.2% | 102% | 92.7% | 97.6% | 110% | 101% | 102% | 100% | 101% | viability, T/C [16]: 109%; viability, T/C [17]: 108%; viability, T/C [18]: 104%; viability, T/C [19]: 91.2%; viability, T/C [20]: 96.8%; viability, T/C [21]: 94.8%; viability, T/C [22]: 110%; viability, T/C [23]: 104%; viability, T/C [24]: 96%; viability, T/C [25]: 103%; viability, T/C [26]: 108%; viability, T/C [27]: 92.1%; viability, T/C [28]: 102%; viability, T/C [29]: 122%; viability, T/C [30]: 109%
6 | [2H]c1nc(C)nc([2H])c1-c1cc(NC[C@@H](C)c2cccc3c(C(=O)NC)ccnc23)ncn1 + Cn1nnc2c(C(N)=O)ncn2c1=O | > 10000 nM | > 10000 nM | > 10000 nM | > 10000 nM | > 10000 nM | 108% | 105% | 106% | 94.7% | 95.8% | 92.5% | 111% | 90.1% | 90.2% | 91.1% | 98.3% | 97% | 111% | 94.6% | 97.5% | viability, T/C [16]: 101%; viability, T/C [17]: 94.1%; viability, T/C [18]: 95.6%; viability, T/C [19]: 114%; viability, T/C [20]: 103%; viability, T/C [21]: 105%; viability, T/C [22]: 99.2%; viability, T/C [23]: 89.4%; viability, T/C [24]: 85.6%; viability, T/C [25]: 103%; viability, T/C [26]: 102%; viability, T/C [27]: 107%; viability, T/C [28]: 104%; viability, T/C [29]: 99.9%; viability, T/C [30]: 96%
